Patent publication US20220089609A1, “SUBSTITUTED QUINAZOLINONE DERIVATIVES AND THEIR USE AS POSITIVE ALLOSTERIC MODULATORS OF MGLUR4” (DOMAIN THERAPEUTICS, priority 2018, published 2022)
“And” between values parts separate entries of the source, which are not always exact repeats. Equal values may be shown once. Where a name gives a salt, the structure may show the parent alone.

Tests used:
human mGluR4 (hmGluR4) = target: T1, human mGluR4 (hmGluR4) (Homo sapiens, UniProt Q14833); experiment: Calcium assay EC50 determination, positive allosteric modulator activity on hmGluR4 transiently over-expressed in HEK-293 cells; format: cell-based; details: PAM mode with EC20 glutamate; hmGluR4 in HEK-293 cells; intracellular calcium (Fluo4AM); read-out: mGluR4 positive allosteric modulator activity, half maximal effective concentration (EC50)
T1 construct: expressed in transfected cells; host or cells: HEK-293 cells, transient co-transfection by electroporation
How it was run: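 HEK-293 cells transiently co-transfected with hmGluR4, chimeric G protein and glutamate transporters; Fluo4AM calcium read (ex 485/em 525 nm) on FLIPR Tetra. Compound alone 10 min for agonism, then EC20 glutamate with 3 min recording for PAM activity, versus buffer or EC20 glutamate basal.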

T1 sequence (Q14833 33-912): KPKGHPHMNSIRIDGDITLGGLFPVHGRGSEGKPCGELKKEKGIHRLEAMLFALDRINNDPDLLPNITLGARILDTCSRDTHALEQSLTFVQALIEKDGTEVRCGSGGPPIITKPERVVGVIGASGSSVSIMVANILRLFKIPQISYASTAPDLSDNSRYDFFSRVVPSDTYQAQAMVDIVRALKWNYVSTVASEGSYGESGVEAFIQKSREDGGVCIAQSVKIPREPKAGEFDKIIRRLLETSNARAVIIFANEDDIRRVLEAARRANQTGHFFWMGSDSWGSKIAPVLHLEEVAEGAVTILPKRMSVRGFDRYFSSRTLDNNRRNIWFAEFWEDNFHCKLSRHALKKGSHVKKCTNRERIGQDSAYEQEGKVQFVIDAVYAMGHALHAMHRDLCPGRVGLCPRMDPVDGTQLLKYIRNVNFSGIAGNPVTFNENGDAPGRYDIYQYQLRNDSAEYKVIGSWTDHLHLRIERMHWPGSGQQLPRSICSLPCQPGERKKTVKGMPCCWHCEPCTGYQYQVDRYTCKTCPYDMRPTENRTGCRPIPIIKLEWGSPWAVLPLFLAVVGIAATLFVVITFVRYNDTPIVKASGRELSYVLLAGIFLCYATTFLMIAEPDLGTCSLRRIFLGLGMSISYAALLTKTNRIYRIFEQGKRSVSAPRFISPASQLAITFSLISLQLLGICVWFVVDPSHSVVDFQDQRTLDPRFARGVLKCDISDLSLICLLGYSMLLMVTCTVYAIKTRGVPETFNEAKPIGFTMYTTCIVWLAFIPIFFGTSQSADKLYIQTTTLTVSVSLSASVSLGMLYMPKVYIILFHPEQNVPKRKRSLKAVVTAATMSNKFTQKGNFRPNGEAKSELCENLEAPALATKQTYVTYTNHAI

With `Cc1cc(CN2CCOC(C)(C)C2)cc2c(=O)[nH]c(-c3cc4sccc4cn3)nc12` (as salt: hydrochloride) [Compound 153, 6-[(2,2-Dimethylmorpholin-4-yl)methyl]-8-methyl-2-thieno[3,2-c]pyridin-6-yl-3H-quinazolin-4-one hydrochloride] as the compound, how does the melting point read?
Its melting point is 220 to 240 °C.

For `O=c1[nH]c(-c2cc(C(F)(F)F)ccn2)nc2c(Cl)cc(CCN3CCOCC3)cc12` (as salt: hydrochloride) [Compound 154, 8-Chloro-6-(2-morpholinoethyl)-2-(4-(trifluoromethyl)pyridin-2-yl)quinazolin-4(3H)-one hydrochloride], which melting point is on record?
The melting point was over 250 °C.

Which melting point does the source give for `Cc1cc(CN2CCC(C(=O)N(C)C)CC2)cc2c(=O)[nH]c(-c3cc4sccc4cn3)nc12` (as salt: hydrochloride) [Compound 156, N,N-Dimethyl-14(8-methyl-4-oxo-2-(thieno[3,2-c]pyridin-6-yl)-3,4-dihydroquinazolin-6-yl)methyl)piperidine-4-carboxamide hydrochloride] here?
Its melting point is 215 to 230 °C.

For `COCC1CCN(Cc2cc(C)c3nc(-c4cc5sccc5cn4)[nH]c(=O)c3c2)CC1` (as salt: hydrochloride) [Compound 157, 6-((4-(Methoxymethyl)piperidin-1-yl)methyl)-8-methyl-2-(thieno[3,2-c]pyridin-6-yl)quinazolin-4(3H)-one hydrochloride], which melting point is on record?
Its melting point is 200 to 210 °C.

With `O=c1[nH]c(-c2cc3cccn3cn2)nc2ccc(OCCCc3ccncc3)cc12` [Compound 1, 6-(3-pyridin-4-yl-propoxy)-2-pyrrolo[1,2-c]pyrimidin-3-yl-3H-quinazolin-4-one] as the compound, how does the EC50 (human mGluR4 (hmGluR4)) read?
Its EC50 is 100 to 1000 nM.

What about the melting point of the same compound?
The melting point was 202 to 206 °C.

Which results are given for `Cl.O=c1[nH]c(-c2cc3ccccc3cn2)nc2ccc(OCCCc3ccncc3)cc12` [Compound 2, 2-Isoquinolin-3-yl-6-(3-pyridin-4-yl-propoxy)-3H-quinazolin-4-one hydrochloride]?
EC50 (human mGluR4 (hmGluR4)): 1000 to 10000 nM; melting point: > 250 °C

With `Cl.O=c1[nH]c(-c2cc3sccc3cn2)nc2ccc(OCCCc3ccncc3)cc12` [Compound 3, 6-(3-Pyridin-4-yl-propoxy)-2-thieno[3,2-c]pyridin-6-yl-3H-quinazolin-4-one hydrochloride] as the compound, how does the EC50 (human mGluR4 (hmGluR4)) read?
The EC50 was 100 to 1000 nM and < 1000 nM.

What about the melting point of the same compound?
The melting point was over 250 °C.

Which melting point does the source give for `Cl.O=c1[nH]c(-c2cc3ccsc3cn2)nc2ccc(OCCCc3ccncc3)cc12` [Compound 4] here?
Its melting point is over 250 °C.

Which results are given for `Cl.O=c1[nH]c(-c2ccccn2)nc2ccc(OCCCc3ccncc3)cc12` [Compound 5, 2-Pyridin-2-yl-6-(3-pyridin-4-yl-propoxy)-3H-quinazolin-4-one hydrochloride]?
EC50 (human mGluR4 (hmGluR4)): 100 to 1000 nM and < 1000 nM; melting point: > 250 °C

With `COc1ccnc(-c2nc3ccc(OCCCc4ccncc4)cc3c(=O)[nH]2)c1.Cl` [Compound 7, 2-(4-methoxy-pyridin-2-yl)-6-(3-pyridin-4-yl-propoxy)-3H-quinazolin-4-one hydrochloride] as the compound, how does the EC50 (human mGluR4 (hmGluR4)) read?
Its EC50 is 1000 to 10000 nM.

What about the melting point of the same compound?
The melting point was over 250 °C.

With `Cl.O=c1[nH]c(-c2ccc(F)cn2)nc2ccc(OCCCc3ccncc3)cc12` [Compound 8, 2-(5-Fluoro-pyridin-2-yl)-6-(3-pyridin-4-yl-propoxy)-3H-quinazolin-4-one hydrochloride] as the compound, how does the EC50 (human mGluR4 (hmGluR4)) read?
Its EC50 is 1000 to 10000 nM.

And the melting point?
The melting point was over 250 °C.

For `Cl.O=c1[nH]c(-c2cc(C(F)(F)F)ccn2)nc2ccc(OCCCc3ccncc3)cc12` [Compound 9, 6-(3-Pyridin-4-yl-propoxy)-2-(4-trifluoromethyl-pyridin-2-yl)-3H-quinazolin-4-one hydrochloride], which EC50 (human mGluR4 (hmGluR4)) is on record?
Its EC50 is 100 to 1000 nM and < 1000 nM.

What about the melting point of the same compound?
The melting point was 239 to 245 °C.

For `Cl.O=c1[nH]c(-c2ccc(C(F)(F)F)cn2)nc2ccc(OCCCc3ccncc3)cc12` [Compound 10, 6-[3-(4-pyridyl)propoxy]-2-[5-(trifluoromethyl)-2-pyridyl]-3H-quinazolin-4-one hydrochloride], which EC50 (human mGluR4 (hmGluR4)) is on record?
The EC50 was 100 to 1000 nM.

What about the melting point of the same compound?
Its melting point is over 250 °C.

For `COCCOc1ccc2nc(-c3cc4cccn4cn3)[nH]c(=O)c2c1` [Compound 34, 6-(2-Methoxy-ethoxy)-2-pyrrolo[1,2-c]pyrimidin-3-yl-3H-quinazolin-4-one], which EC50 (human mGluR4 (hmGluR4)) is on record?
Its EC50 is over 10000 nM.

And the melting point?
The melting point was 181 to 187 °C.

Which EC50 (human mGluR4 (hmGluR4)) does the source give for `Cl.O=c1[nH]c(-c2cc3sccc3cn2)nc2ccc(OCCN3CCOCC3)cc12` [Compound 35, 6-(2-Morpholin-4-yl-ethoxy)-2-thieno[3,2-c]pyridin-6-yl-3H-quinazolin-4-one hydrochloride] here?
The EC50 was 1000 to 10000 nM.

And the melting point?
The melting point was over 250 °C.

Which EC50 (human mGluR4 (hmGluR4)) does the source give for `COCCOc1ccc2nc(-c3cc4sccc4cn3)[nH]c(=O)c2c1` [Compound 36, 6-(2-Methoxy-ethoxy)-2-thieno[3,2-c]pyridin-6-yl-3H-quinazolin-4-one] here?
Its EC50 is over 10000 nM.

What about the melting point of the same compound?
The melting point was 209 to 213 °C.

Which results are given for `Cl.O=c1[nH]c(-c2cc3sccc3cn2)nc2ccc(OCCCc3cccnc3)cc12` [Compound 37, 6-(3-Pyridin-3-yl-propoxy)-2-thieno[3,2-c]pyridin-6-yl-3H-quinazolin-4-one hydrochloride]?
EC50 (human mGluR4 (hmGluR4)): 100 to 1000 nM; melting point: 149 to 154 °C

With `CC(=O)N1CCC(COc2ccc3nc(-c4cc5ccsc5cn4)[nH]c(=O)c3c2)CC1` [Compound 47, 6-(1-Acetyl-piperidin-4-ylmethoxy)-2-thieno[2,3-c]pyridin-5-yl-3H-quinazolin-4-one] as the compound, how does the EC50 (human mGluR4 (hmGluR4)) read?
Its EC50 is 100 to 1000 nM.

And the melting point?
Its melting point is over 250 °C.

Which EC50 (human mGluR4 (hmGluR4)) does the source give for `CCC(=O)N1CCC(COc2ccc3nc(-c4cc5ccsc5cn4)[nH]c(=O)c3c2)CC1` [Compound 48, 6-(1-Propionyl-piperidin-4-ylmethoxy)-2-thieno[2,3-c]pyridin-5-yl-3H-quinazolin-4-one] here?
The EC50 was 100 to 1000 nM.

And the melting point?
Its melting point is 234 to 239 °C.

What does the source list for `CS(=O)(=O)c1ccc(CCCOc2ccc3nc(-c4cc5ccsc5cn4)[nH]c(=O)c3c2)cc1` [Compound 60, 6-[3-(4-Methanesulfonyl-phenyl)-propoxy]-2-thieno[2,3-c]pyridin-5-yl-3H-quinazolin-4-one]?
EC50 (human mGluR4 (hmGluR4)): 100 to 1000 nM; melting point: 236 to 237 °C

With `Cl.O=c1[nH]c(-c2cc3ccsc3cn2)nc2ccc(OCCCc3cnccn3)cc12` [Compound 61, 6-(3-Pyrazin-2-yl-propoxy)-2-thieno[2,3-c]pyridin-5-yl-3H-quinazolin-4-one hydrochloride] as the compound, how does the EC50 (human mGluR4 (hmGluR4)) read?
The EC50 was 100 to 1000 nM.

And the melting point?
The melting point was 230 to 240 °C.

For `COc1cnccc1CCCOc1ccc2nc(-c3cc4ccsc4cn3)[nH]c(=O)c2c1.Cl` [Compound 62, 6-[3-(3-Methoxy-pyridin-4-yl)-propoxy]-2-thieno[2,3-c]pyridin-5-yl-3H-quinazolin-4-one hydrochloride], which EC50 (human mGluR4 (hmGluR4)) is on record?
Its EC50 is 100 to 1000 nM.

And the melting point?
The melting point was 250 to 251 °C.

Which EC50 (human mGluR4 (hmGluR4)) does the source give for `O=c1[nH]c(-c2cc3ccsc3cn2)nc2ccc(OCCCc3cocn3)cc12` [Compound 64, 6-(3-Oxazol-4-yl-propoxy)-2-thieno[2,3-c]pyridin-5-yl-3H-quinazolin-4-one] here?
The EC50 was 100 to 1000 nM.

And the melting point?
The melting point was 197 to 199 °C.

For `Cl.O=c1[nH]c(-c2cc(C(F)(F)F)ccn2)nc2ccc(OCCCc3ccncc3)nc12` [Compound 67, 6-(3-Pyridin-4-yl-propoxy)-2-(4-trifluoromethyl-pyridin-2-yl)-3H-pyrido[3,2-d]pyrimidin-4-one hydrochloride], which EC50 (human mGluR4 (hmGluR4)) is on record?
Its EC50 is 100 to 1000 nM.

What about the melting point of the same compound?
Its melting point is over 250 °C.

Which EC50 (human mGluR4 (hmGluR4)) does the source give for `Cc1cc(O[C@@H](C)C2CCOCC2)cc2c(=O)[nH]c(-c3cc4ccsc4cn3)nc12` [Compound 110-S, S-8-Methyl-6-[1-(tetrahydro-pyran-4-yl)-ethoxy]-2-thieno[2,3-c]pyridin-5-yl-3H-quinazolin-4-one] here?
Its EC50 is at most 100 nM.

What about the melting point of the same compound?
Its melting point is 150 to 180 °C.

Which EC50 (human mGluR4 (hmGluR4)) does the source give for `Cc1cc(O[C@@H](C)C2CCOCC2)cc2c(=O)[nH]c(-c3cc(C(F)(F)F)ccn3)nc12` [Compound 111-S, S-8-Methyl-6-[1-(tetrahydro-pyran-4-yl)-ethoxy]-2-(4-trifluoromethyl-pyridin-2-yl)-3H-quinazolin-4-one] here?
The EC50 was 100 to 1000 nM.

What about the melting point of the same compound?
Its melting point is 120 to 132 °C.

Which EC50 (human mGluR4 (hmGluR4)) does the source give for `Cc1cc(OCC2(F)CCOC2)cc2c(=O)[nH]c(-c3cc(C(F)(F)F)ccn3)nc12` (centres unmarked) [Compound 112, 6-[(3-fluorotetrahydrofuran-3-yl)methoxy]-8-methyl-2-[4-(trifluoromethyl)-2-pyridyl]-3H-quinazolin-4-one] here?
Its EC50 is at most 100 nM.

What about the melting point of the same compound?
Its melting point is 188 to 195 °C.

Which results are given for `CCC(=O)N1CC(Oc2cc(C)c3nc(-c4cc5ccsc5cn4)[nH]c(=O)c3c2)C1` [Compound 116, 8-methyl-6-(1-propanoylazetidin-3-yl)oxy-2-thieno[2,3-c]pyridin-5-yl-3H-quinazolin-4-one]?
EC50 (human mGluR4 (hmGluR4)): 100 to 1000 nM; melting point: 230 to 240 °C

For `Cc1cc(OC2CCC(=O)N(C)C2)cc2c(=O)[nH]c(-c3cc4cccn4cn3)nc12` (centres unmarked) [Compound 118, 8-Methyl-6-[(1-methyl-6-oxo-3-piperidyl)oxy]-2-pyrrolo[1,2-c]pyrimidin-3-yl-3H-quinazolin-4-one], which EC50 (human mGluR4 (hmGluR4)) is on record?
The EC50 was at most 100 nM.

And the melting point?
Its melting point is 220 to 230 °C.

For `Cc1cc(N2CCC3(CCOCC3)CC2)cc2c(=O)[nH]c(-c3cc4sccc4cn3)nc12` [Compound 120, 8-Methyl-6-(3-oxa-9-azaspiro[5.5]undecan-9-yl)-2-(thieno[3,2-c]pyridin-6-yl)quinazolin-4(3H)-one], which EC50 (human mGluR4 (hmGluR4)) is on record?
Its EC50 is at most 100 nM.

What about the melting point of the same compound?
Its melting point is over 250 °C.

Which results are given for `Cc1cc(CCN2CCCOCC2)cc2c(=O)[nH]c(-c3cnc4ccsc4c3)nc12.Cl` [Compound 122, 8-Methyl-6-(2-[1,4]oxazepan-4-yl-ethyl)-2-thieno[3,2-b]pyridin-6-yl-3H-quinazolin-4-one hydrochloride]?
EC50 (human mGluR4 (hmGluR4)): ≤ 100 nM; melting point: > 250 °C

Which results are given for `Cc1cc(CCN2CCOCC2)cc2c(=O)[nH]c(-c3cc4sccc4cn3)nc12.Cl` [Compound 123, 8-Methyl-6-(2-morpholin-4-yl-ethyl)-2-thieno[3,2-c]pyridin-6-yl-3H-quinazolin-4-one hydrochloride]?
EC50 (human mGluR4 (hmGluR4)): ≤ 100 nM; melting point: > 250 °C
